According to patent publication US7459450B2, “Neuropeptide receptor modulators” (Schering Corporation, priority 2004, dated 2008):
pKi: −log10 of the molar value.

What follows are compounds tested against T1, Human NPY Y1 receptors (Homo sapiens, UniProt P25929) (assay: NPY Receptor Binding Assay). Settings: not given.
T1 construct: expressed in transfected cells; host or cells: CHO cells (membrane protein)
T1 sequence (P25929 1-384): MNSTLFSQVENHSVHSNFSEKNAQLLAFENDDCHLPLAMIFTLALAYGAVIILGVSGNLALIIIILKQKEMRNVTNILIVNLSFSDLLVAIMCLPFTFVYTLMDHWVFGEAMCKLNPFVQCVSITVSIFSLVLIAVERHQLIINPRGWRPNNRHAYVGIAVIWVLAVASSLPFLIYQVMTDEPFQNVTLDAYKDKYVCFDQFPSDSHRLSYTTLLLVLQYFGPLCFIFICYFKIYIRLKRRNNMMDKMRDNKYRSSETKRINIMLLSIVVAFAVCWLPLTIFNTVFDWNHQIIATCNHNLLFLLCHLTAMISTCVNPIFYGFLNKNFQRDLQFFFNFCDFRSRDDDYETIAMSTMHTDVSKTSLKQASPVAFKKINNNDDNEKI

Structure (SMILES) | pKi
Cc1ccc2nc(NCCc3ccc(/N=C4/N[C@@H](C(C)C)C(=O)S4)cc3)sc2c1 [Example 378] | < 5.00
CSCC[C@@H]1N/C(=N/c2ccc(CCNc3nc4cc(Cl)c(Cl)cc4s3)cc2)SC1=O [Example 361] | < 5.00
Cc1ccc2nc(NCCc3ccc(/N=C4/N[C@@H](C)C(=O)S4)cc3)sc2c1 [Example 381] | < 5.00
CC(C)[C@@H]1N/C(=N/c2ccc(CCNc3nc4ccc([N+](=O)[O-])cc4s3)cc2)SC1=O [Example 356] | < 5.00
C[C@@H]1N/C(=N/c2ccc(CCNc3nc4ccc(F)cc4s3)cc2)SC1=O [Example 403] | < 5.00
O=C1CN/C(=N\c2ccccc2CCNc2nc3ccccc3s2)S1 [Example 412] | < 5.00
COc1ccc2nc(NCCc3ccc(/N=C4/N[C@@H](C(C)C)C(=O)S4)cc3)sc2c1 [Example 346] | < 5.00
CC(C)[C@@H]1N/C(=N/c2ccc(CCNc3nc4ccccc4s3)cc2)SC1=O [Example 397] | < 5.00
COc1ccc2nc(NCCc3ccc(/N=C4/N[C@@H](Cc5ccccc5)C(=O)S4)cc3)sc2c1 [Example 344] | < 5.00
CC(C)C[C@@H]1N/C(=N/c2ccc(CCNc3nc4ccc(Cl)cc4s3)cc2)SC1=O [Example 383] | < 5.00
CC(C)C[C@@H]1N/C(=N\c2ccccc2CCNc2nc3ccccc3s2)SC1=O [Example 411] | < 5.00
Cc1cccc2sc(NCCc3ccc(/N=C4/N[C@@H](Cc5ccccc5)C(=O)S4)cc3)nc12 [Example 369] | < 5.00
O=C(O)C[C@@H]1N/C(=N\c2ccccc2CCNc2nc3ccccc3s2)SC1=O [Example 413] | < 5.00
C[C@@H]1N/C(=N/c2ccc(CCNc3nc4ccccc4s3)cc2)SC1=O [Example 400] | < 5.00
CC(C)[C@@H]1N/C(=N/c2ccc(CCNc3nc4cc(Cl)c(Cl)cc4s3)cc2)SC1=O [Example 363] | < 5.00
COc1ccc2nc(NCCc3ccc(/N=C4/N[C@@H](CC(C)C)C(=O)S4)cc3)sc2c1 [Example 345] | < 5.00
CS(=O)(=O)c1ccc2nc(NCCc3ccc(/N=C4\SC(=O)[C@@H]5CCCN45)cc3)sc2c1 [Example 352] | < 5.00
COc1ccc2nc(NCCc3ccc(/N=C4/N[C@@H](C)C(=O)S4)cc3)sc2c1 [Example 349] | < 5.00
CC(C)C[C@@H]1N/C(=N/c2ccc(CCNc3nc4ccc([N+](=O)[O-])cc4s3)cc2)SC1=O [Example 340] | < 5.00

Same assay, conditions: Procedure A compounds, rated A/B/C

Structure (SMILES) | pKi
COc1ccc2nc(NCCc3ccc(NC4=NCCS4)cc3)sc2c1 [Example 16] | 5.00 to 6.00

Same assay, conditions: Procedure B compounds, rated A/B/C

Structure (SMILES) | pKi
CCOC(=O)N1C(Nc2ccc(CCNc3nc4ccccc4s3)cc2)=NC(C)C1c1ccccc1 (stereo not drawn) [Example 28] | < 5.00
CCOC(=O)N1CC2(CCCC2)N=C1Nc1ccc(CCNc2nc3ccccc3s2)cc1 [Example 29] | < 5.00
O=C(c1ccccc1)N1CC2(CCCC2)N=C1Nc1ccc(CCNc2nc3ccccc3s2)cc1 [Example 32] | < 5.00
O=C(c1ccccc1)N1CC(c2ccccc2)N=C1Nc1ccc(CCNc2nc3ccccc3s2)cc1 (stereo not drawn) [Example 30] | < 5.00

Same assay, conditions: Procedure C compounds, rated A/B/C

Structure (SMILES) | pKi
CCOC(=O)N1C(=O)[C@H](C)N=C1Nc1ccc(CCNc2nc3ccccc3s2)cc1 [Example 37] | < 5.00
CCOC(=O)N1C(=O)[C@H]([C@@H](C)CC)N=C1Nc1ccc(CCNc2nc3ccccc3s2)cc1 [Example 41] | < 5.00

Same assay, conditions: Procedure E compounds, rated A/B/C

Structure (SMILES) | pKi
CN1CCS/C1=N/c1cccc(CCNc2nc3ccccc3s2)c1 [Example 182] | < 5.00
COc1ccc2nc(NCCc3ccc(/N=C4\SC5CCC[C@H]5N4C)cc3)sc2c1 (stereo partly drawn) [Example 78] | < 5.00
COc1cccc2sc(NCCc3ccc(/N=C4/NCC(C)S4)cc3)nc12 (stereo not drawn) [Example 326] | < 5.00
COc1cccc2sc(NCCc3ccc(/N=C4\SC5Cc6ccccc6[C@@H]5N4C4CC4)cc3)nc12 (stereo partly drawn) [Example 229] | < 5.00
CC[C@@H]1CS/C(=N\c2ccc(CCNc3nc4ccc(F)cc4s3)cc2)N1 [Example 167] | > 6.00
CCCCC1CS/C(=N\c2ccc(CCNc3nc4ccc(OC)cc4s3)cc2)N1 (stereo not drawn) [Example 215] | > 6.00
Clc1cc2nc(NCCc3ccc(/N=C4/NC(c5ccccc5)CCS4)cc3)sc2cc1Cl (stereo not drawn) [Example 66] | < 5.00
COc1ccc2nc(NCCc3ccc(/N=C4\SCCN4C)cc3)sc2c1 [Example 80] | < 5.00
Cc1ccc2nc(NCCc3ccc(/N=C4/N[C@@H](Cc5c[nH]cn5)CS4)cc3)sc2c1 [Example 97] | 5.00 to 6.00
CC(C)C[C@@H]1CS/C(=N\c2ccc(CCNc3nc4ccc(F)cc4s3)cc2)N1 [Example 297] | > 6.00
CC1CN/C(=N\c2cccc(CCNc3nc4ccccc4s3)c2)S1 (stereo not drawn) [Example 187] | < 5.00
CCCC1CS/C(=N\c2ccc(CCNc3nc4ccc(OC)cc4s3)cc2)N1 (stereo not drawn) [Example 214] | > 6.00
COc1ccc2nc(NCCc3ccc(/N=C4/NCC(c5ccccc5)S4)cc3)sc2c1 (stereo not drawn) [Example 85] | < 5.00
Clc1ccc2nc(NCCc3ccc(/N=C4/NC5(CCCC5)CS4)cc3)sc2c1 [Example 239] | 5.00 to 6.00
Clc1ccc2nc(NCCc3ccc(NC4=NCCCS4)cc3)sc2c1 [Example 213] | > 6.00
CS(=O)(=O)c1ccc2nc(NCCc3ccc(NC4=NCCCS4)cc3)sc2c1 [Example 65] | 5.00 to 6.00
Clc1ccc(C2CCSC(Nc3ccc(CCNc4nc5ccccc5s4)cc3)=N2)cc1 (stereo not drawn) [Example 337] | > 6.00
c1ccc([C@@H]2CSC(Nc3ccc(CCNc4nc5ccccc5s4)cc3)=N2)cc1 [Example 196] | > 6.00

Structure (SMILES) | pKi
c1ccc(C2CCS/C(=N/c3ccccc3CCNc3nc4ccccc4s3)N2)cc1 (stereo not drawn) [Example 70] | < 5.00
c1ccc2sc(NCCc3ccc(/N=C4/NC5(CCCC5)CS4)cc3)nc2c1 [Example 271] | > 6.00
Cc1cccc2sc(NCCc3ccc(/N=C4/NC(c5ccccc5)CCS4)cc3)nc12 (stereo not drawn) [Example 208] | < 5.00
CC1(C)CS/C(=N\c2ccc(CCNc3nc4ccc(S(C)(=O)=O)cc4s3)cc2)N1 [Example 118] | 5.00 to 6.00
Fc1ccc2nc(NCCc3ccc(/N=C4/N[C@H]5c6ccccc6CC5S4)cc3)sc2c1 (stereo partly drawn) [Example 328] | > 6.00
Cc1ccc2nc(NCCc3ccc(/N=C4/N[C@H](CC(C)C)CS4)cc3)sc2c1 [Example 88] | > 6.00
CCCC1CS/C(=N\c2ccc(CCNc3nc4ccccc4s3)cc2)N1 (stereo not drawn) [Example 264] | > 6.00
Cc1ccc2nc(NCCc3ccc(/N=C4/NC(c5ccccc5)CCS4)cc3)sc2c1 (stereo not drawn) [Example 204] | > 6.00
CCCCC1CS/C(=N\c2ccc(CCNc3nc4ccc(Cl)cc4s3)cc2)N1 (stereo not drawn) [Example 106] | 5.00 to 6.00
CCC1CS/C(=N\c2ccc(CCNc3nc4ccccc4s3)cc2)N1 (stereo not drawn) [Example 263] | > 6.00
CC(C)[C@H]1CS/C(=N\c2ccc(CCNc3nc4ccc(Cl)cc4s3)cc2)N1 [Example 107] | 5.00 to 6.00
O=[N+]([O-])c1ccc2nc(NCCc3ccc(/N=C4/N[C@H]5c6ccccc6CC5S4)cc3)sc2c1 (stereo partly drawn) [Example 194] | < 5.00
c1ccc(CCC2CCSC(Nc3ccc(CCNc4nc5ccccc5s4)cc3)=N2)cc1 (stereo not drawn) [Example 197] | > 6.00
Cc1ccc2nc(NCCc3ccc(/N=C4/NC5(CCCC5)CS4)cc3)sc2c1 [Example 226] | 5.00 to 6.00
CS(=O)(=O)c1ccc2nc(NCCc3ccc(/N=C4/N[C@H]5c6ccccc6CC5S4)cc3)sc2c1 (stereo partly drawn) [Example 332] | < 5.00
c1ccc2sc(NCCc3ccc(N=C4NCCCS4)cc3)nc2c1 [Example 202] | > 6.00
Brc1ccc(C2CCSC(Nc3ccc(CCNc4nc5ccccc5s4)cc3)=N2)cc1 (stereo not drawn) [Example 335] | > 6.00

Same assay, conditions: Procedure G compounds, rated A/B/C

Structure (SMILES) | pKi
CC(=O)c1sc(Nc2ccc(CCNc3nc4ccccc4s3)cc2)nc1C [Example 429] | < 5.00
CCc1csc(Nc2ccc(CCNc3nc4ccccc4s3)cc2)n1 [Example 430] | < 5.00
CCOC(=O)c1sc(Nc2ccc(CCNc3nc4ccccc4s3)cc2)nc1C(F)(F)F [Example 432] | < 5.00
Cc1nc(Nc2ccc(CCNc3nc4ccccc4s3)cc2)sc1C(=O)N(C)C [Example 437] | < 5.00
c1ccc2sc(NCCc3ccc(Nc4nccs4)cc3)nc2c1 [Example 416] | < 5.00

Same assay, conditions: Procedure H compounds, rated A/B/C

Structure (SMILES) | pKi
O=C1N=C(Nc2ccc(CCNc3nc4ccccc4s3)cc2)SC1c1ccccc1 (stereo not drawn) [Example 444] | < 5.00
CCCC1SC(Nc2ccc(CCNc3nc4ccccc4s3)cc2)=NC1=O (stereo not drawn) [Example 446] | < 5.00
CCC1SC(Nc2ccc(CCNc3nc4ccccc4s3)cc2)=NC1=O (stereo not drawn) [Example 443] | < 5.00

Same assay, conditions: Procedure I compounds, column head blank, rated A/B/C

Structure (SMILES) | pKi
c1ccc(C2CCCCC(Nc3ccc(CCNc4nc5ccccc5s4)cc3)=N2)cc1 (stereo not drawn) [Example 448] | 5.00 to 6.00
c1ccc(C2CCCC(Nc3ccc(CCNc4nc5ccccc5s4)cc3)=N2)cc1 (stereo not drawn) [Example 449] | 5.00 to 6.00

Same assay, conditions: Table 1, rated A/B/C

Structure (SMILES) | pKi
COc1ccc(C2CCSC(Nc3ccc(CCNc4nc5ccccc5s4)cc3)=N2)cc1 (stereo not drawn) [Example 3] | > 6.00
Clc1ccc(C2CCSC(Nc3ccc(CCNc4nc5ccccc5s4)cc3)=N2)cc1 (stereo not drawn) [Example 2] | > 6.00
Clc1cccc(C2CCSC(Nc3ccc(CCNc4nc5ccccc5s4)cc3)=N2)c1 (stereo not drawn) [Example 4] | > 6.00
c1ccc2sc(NCCc3ccc(NC4=NC(C5CCCCC5)CCS4)cc3)nc2c1 (stereo not drawn) [Example 9] | > 6.00
